The values below come from patent US11833178B2, “Bifidobacterium longum for treating obesity and weight management” (priority 2017, dated 2023).

For this experiment, the system named is Bifidobacterium longum APC1472. Description: Antibiotic susceptibility (VetMIC plates, ISO 10932:2010). It is filed as cell-based, Bifidobacterium longum ssp. longum. As to conditions: read-out: MICs. The procedure: Antibiotic susceptibility was tested with […] plates Lact-1 and Lact-2 supplied from SVA (National Veterinary Institute, Uppsala, Sweden). […] MICs were determined as 80% or more reduction in pellet, compared to positive control lane. Borderline cases were interpreted by visual examples from “Methods for Antimicrobial Susceptibility Testing of Anaerobic Bacteria: Approved Standard” (CLSI, 7th edition).

[1] abbreviates: APC1472, range of MICs for duplicate experiments, 37° C., 48 h.

In brackets after ≈: the same amount, converted by molar mass. Where two headings read alike, the source gives them in different places.

Regarding `CC1(C)S[C@@H]2[C@H](NC(=O)[C@H](N)c3ccccc3)C(=O)N2[C@H]1C(=O)O` [Am, Ampicillin], the MIC under setting [1] came to 2 µg/mL (≈ 5.72 µM).
On to `O=C(N[C@H](CO)[C@H](O)c1ccc([N+](=O)[O-])cc1)C(Cl)Cl` [Cm, Chloramphenicol], for which the MIC under setting [1] stood at 2 µg/mL (≈ 6.19 µM).
With `CC[C@H]1OC(=O)[C@H](C)[C@@H](O[C@H]2C[C@@](C)(OC)[C@@H](O)[C@H](C)O2)[C@H](C)[C@@H](O[C@@H]2O[C@H](C)C[C@H](N(C)C)[C@H]2O)[C@](C)(O)C[C@@H](C)C(=O)[C@H](C)[C@@H](O)[C@]1(C)O` [Em, Erythromycin], the MIC under setting [1] lay in the range of 0.06 to 0.12 µg/mL (≈ 0.0818 to 0.164 µM).
As to `[H]/N=C(/N)N[C@H]1[C@H](O)[C@@H](O)[C@H](O[C@@H]2O[C@@H](C)[C@](O)(C=O)[C@H]2O[C@@H]2O[C@@H](CO)[C@H](O)[C@@H](O)[C@@H]2NC)[C@@H](N/C(N)=N\[H])[C@@H]1O` [Sm, Streptomycin], the MIC under setting [1] fell in the range of 64 to 128 µg/mL (≈ 110 to 220 µM).
On the same count and under the same terms, the value for `CN(C)[C@@H]1C(O)=C(C(N)=O)C(=O)[C@@]2(O)C(O)=C3C(=O)c4c(O)cccc4[C@@](C)(O)[C@H]3C[C@@H]12` [Tc, Tetracycline] was 1 µg/mL (≈ 2.25 µM).
Consider `CN[C@H](CC(C)C)C(=O)N[C@H]1C(=O)N[C@@H](CC(N)=O)C(=O)N[C@H]2C(=O)N[C@H]3C(=O)N[C@H](C(=O)N[C@H](C(=O)O)c4cc(O)cc(O)c4-c4cc3ccc4O)[C@H](O)c3ccc(c(Cl)c3)Oc3cc2cc(c3O[C@@H]2O[C@H](CO)[C@@H](O)[C@H](O)[C@H]2O[C@H]2C[C@](C)(N)[C@H](O)[C@H](C)O2)Oc2ccc(cc2Cl)[C@H]1O` [Va, Vancomycin], for which the MIC (APC1472, 48 h) worked out at 0.5 µg/mL (≈ 0.345 µM).
